The target of assay [1] is T1, Nuclear receptor ROR-gamma (Mus musculus, UniProt P51450).
T1 sequence (P51450 whole entry): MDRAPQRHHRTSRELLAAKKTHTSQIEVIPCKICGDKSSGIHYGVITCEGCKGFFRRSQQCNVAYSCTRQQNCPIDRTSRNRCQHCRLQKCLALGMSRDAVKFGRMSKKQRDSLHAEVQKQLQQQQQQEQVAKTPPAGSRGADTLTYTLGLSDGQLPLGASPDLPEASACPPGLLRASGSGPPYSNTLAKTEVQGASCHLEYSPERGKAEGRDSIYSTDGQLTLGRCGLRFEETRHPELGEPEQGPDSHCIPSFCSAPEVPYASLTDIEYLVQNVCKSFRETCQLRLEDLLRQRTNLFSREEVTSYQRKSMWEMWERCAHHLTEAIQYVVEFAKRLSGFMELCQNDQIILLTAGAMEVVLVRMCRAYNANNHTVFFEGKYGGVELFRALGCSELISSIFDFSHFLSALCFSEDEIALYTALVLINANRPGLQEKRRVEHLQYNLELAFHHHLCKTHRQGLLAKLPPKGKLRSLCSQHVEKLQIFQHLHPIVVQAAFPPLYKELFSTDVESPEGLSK
In words: Inverse agonist activity at RORgammat in mouse Th17 cells assessed as effect on cell differentiation measured as IL-17 level after 3 days by ELISA. Format: cell-based. In general terms: ELISA stands for enzyme-linked immunosorbent assay.

Assay [2] has as its target T2, Nuclear receptor ROR-gamma (Homo sapiens, UniProt P51449).
T2 sequence (P51449 whole entry): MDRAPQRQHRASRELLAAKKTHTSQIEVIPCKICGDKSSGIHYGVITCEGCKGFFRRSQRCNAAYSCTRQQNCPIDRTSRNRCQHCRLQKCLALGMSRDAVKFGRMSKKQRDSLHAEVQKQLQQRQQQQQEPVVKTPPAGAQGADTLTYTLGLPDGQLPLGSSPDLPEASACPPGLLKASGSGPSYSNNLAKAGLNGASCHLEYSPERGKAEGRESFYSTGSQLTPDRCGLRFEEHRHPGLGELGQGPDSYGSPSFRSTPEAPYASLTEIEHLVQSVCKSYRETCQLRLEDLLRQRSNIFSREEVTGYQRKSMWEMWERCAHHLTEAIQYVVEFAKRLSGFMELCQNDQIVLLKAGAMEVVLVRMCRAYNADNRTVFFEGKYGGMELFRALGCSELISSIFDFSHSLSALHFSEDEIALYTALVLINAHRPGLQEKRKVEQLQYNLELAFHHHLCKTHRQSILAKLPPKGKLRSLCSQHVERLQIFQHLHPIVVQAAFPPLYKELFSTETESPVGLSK
Description: Inverse agonist activity at biotinylated human RORgammat expressed in Escherichia coli BL21 assessed as effect on recruitment of SRC1/2 after 1 hr by dual-FRET assay

Assay [3] concerns the target T2, Nuclear receptor ROR-gamma. This is another data set of the same source.
Description: Inverse agonist activity at biotinylated human RORgammat LBD expressed in Escherichia coli BL21 assessed as inhibition of SRC1 recruitment after 1 hr by FRET assay in presence of N-(2-chloro-6-fluorobenzyl)-N-((2'-methoxy-[1,1'-biphenyl]-4-yl)methyl)benzenesulfonamide
Assay [4] has as its target T3, Nuclear receptor ROR-gamma (Homo sapiens) (UniProt P51449).
T3 sequence (whole entry): T2 sequence (P51449 whole entry)
Description: Binding affinity to human RORgammat expressed in Escherichia coli BL21 assessed as melting temperature by thermal shift assay

As a reminder, the IC50 is the concentration at which inhibition is half-maximal. A word on the ΔTm: it is the change in melting temperature against a reference sample. A word on the EC50: it is the concentration at which the effect is half-maximal. A lower EC50 goes with greater potency.

For the molecule `CCS(=O)(=O)c1ccc(CC(=O)Nc2ccc3c(ccn3CCc3ccc(C(F)(F)F)cc3)c2)cc1`, the IC50 in assay [1] was found to be 0.031 µM. The same measure, in the same setting: the value for `CCS(=O)(=O)c1ccc(CC(=O)Nc2ccc3c(ccn3CCc3ccc(Cl)cc3Cl)c2)cc1` was 0.009 µM. With `CCCN(CCc1ccc(C(F)(F)F)cc1)c1ccc(NC(=O)Cc2ccc(S(=O)(=O)CC)cc2)cc1`, the half-maximal inhibitory concentration (IC50) in assay [1] was 0.733 µM. `CCS(=O)(=O)c1ccc(CC(=O)Nc2nc(-c3cc(Cl)ccc3Cl)cs2)cc1`: the IC50 in assay [2] and in assay [3] was 1 µM throughout. For the same molecule, the ΔTm in assay [4] was found to be 7.1 °C. For `CCS(=O)(=O)c1ccc(CC(=O)Nc2ccc(CNCc3ccc(C(F)(F)F)cc3)cc2)cc1`, the IC50 in assay [1] was greater than 10 µM. For the molecule `CCS(=O)(=O)c1ccc(CC(=O)Nc2ccc3c(ccn3CCc3ccc(OC(C)C)cc3)c2)cc1`, the IC50 in assay [1] is 0.07 µM. Turning to `CCS(=O)(=O)c1ccc(CC(=O)Nc2ccc(NCCc3ccc(C(F)(F)F)cc3)c(Cl)c2)cc1`, the IC50 in assay [1] amounted to 1.02 µM. `CCS(=O)(=O)c1ccc(CC(=O)Nc2ccc3c(ccn3CCc3ccc(Cl)c(Cl)c3)c2)cc1`: the IC50 in assay [1] turned out to be 0.04 µM.

As for `CCCN(Cc1ccc(C)cc1)Cc1ccc(NC(=O)Cc2ccc(S(=O)(=O)CC)cc2)cc1`, the EC50 in assay [2] came out at 0.025 µM. The molecule also registered an IC50 in assay [3] greater than 25 µM. In the case of `CCCN(Cc1ccc(NC(=O)Cc2ccc(S(=O)(=O)CC)cc2)cc1)Cc1ccc(C(F)(F)F)cc1`, in assay [1], the IC50 is 0.32 µM. Regarding `CCS(=O)(=O)c1ccc(CC(=O)Nc2ccc3c(ccn3CCc3ccc(C#N)cc3)c2)cc1`, the IC50 in assay [1] came to 0.457 µM. For the molecule `CCS(=O)(=O)c1ccc(CC(=O)Nc2ccc3c(ccn3CCc3ccc(Cl)cc3)c2)cc1`, the IC50 in assay [1] turned out to be 0.164 µM.

Source of the values: ChEMBL document CHEMBL3108708, “Discovery of Tertiary Amine and Indole Derivatives as Potent RORγt Inverse Agonists” (ACS Med Chem Lett, 2014).
